Experimental data published in PubChem BioAssay AID2060327 (Molecular Pharmacology Branch, DTP, NCI, 2025).
Values joined by “and” are separate entries in the source; they are usually repeats but may differ in a detail not shown here. Equal entries are not always repeated. Values belong to the compound of their own block, whether it stands above or below them.

Test system: PC-3 multi-cell spheroids, viability
Assay: Anticancer human tumor PC-3 cell line growth inhibition [IpAb];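 note: spheroids exposed to compounds for 7 days before readout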;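 for viability, T/C: 100% = DMSO vehicle control wells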
Settings: for viability, T/C: stronger effect = lower value
How it was run: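 Combinations with ipatasertib or abemaciclib were tested on tumour spheroids holding HUVEC (25%) and MSC (15%) alongside 60% malignant cells. Top concentration was at or near clinical Cmax (10 microM if undefined), descending in half-log steps.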

[1] = curve of first compound, second compound 0.01 µM
[2] = curve of first compound, second compound 0.0316 µM
[3] = curve of first compound, second compound 0.1 µM
[4] = curve of first compound, second compound 0.316 µM
[5] = curve of first compound, second compound 1 µM
[6] = second compound 0.1 µM, first compound 0.0316 µM
[7] = second compound 0.1 µM, first compound 0.1 µM
[8] = second compound 0.1 µM, first compound 0.316 µM
[9] = second compound 0.1 µM, first compound 1 µM
[10] = second compound 0.316 µM, first compound 0.0316 µM
[11] = second compound 0.316 µM, first compound 0.1 µM
[12] = second compound 0.316 µM, first compound 0.316 µM
[13] = second compound 0.316 µM, first compound 1 µM
[14] = second compound 1 µM, first compound 0.0316 µM
[15] = second compound 1 µM, first compound 0.1 µM
[16] = second compound 1 µM, first compound 0.316 µM
[17] = second compound 1 µM, first compound 1 µM
[18] = curve of first compound, second compound 3.16 µM
[19] = curve of first compound, second compound 10 µM
[20] = second compound 0.1 µM, first compound 3.16 µM
[21] = second compound 0.1 µM, first compound 10 µM
[22] = second compound 0.316 µM, first compound 3.16 µM
[23] = second compound 0.316 µM, first compound 10 µM
[24] = second compound 1 µM, first compound 3.16 µM
[25] = second compound 1 µM, first compound 10 µM
[26] = second compound 3.16 µM, first compound 0.0316 µM
[27] = second compound 3.16 µM, first compound 0.1 µM
[28] = second compound 3.16 µM, first compound 0.316 µM
[29] = second compound 3.16 µM, first compound 1 µM
[30] = second compound 3.16 µM, first compound 3.16 µM
[31] = second compound 3.16 µM, first compound 10 µM
[32] = second compound 10 µM, first compound 0.0316 µM
[33] = second compound 10 µM, first compound 0.1 µM
[34] = second compound 10 µM, first compound 0.316 µM
[35] = second compound 10 µM, first compound 1 µM
[36] = second compound 10 µM, first compound 3.16 µM
[37] = second compound 10 µM, first compound 10 µM

Structure (SMILES): CC(=O)c1c(C)c2cnc(Nc3ccc(N4CCNCC4)cn3)nc2n(C2CCCC2)c1=O + CCN1CCN(Cc2ccc(Nc3ncc(F)c(-c4cc(F)c5nc(C)n(C(C)C)c5c4)n3)nc2)CC1
- IC50 [1]: > 300 nM
- IC50 [2]: > 300 nM
- IC50 [3]: > 300 nM
- IC50 [4]: > 300 nM
- IC50 [5]: > 300 nM
- viability, T/C (second compound 0.01 µM, first compound 0.000949 µM): 79.2%
- viability, T/C (second compound 0.01 µM, first compound 0.003 µM): 68.6%
- viability, T/C (second compound 0.01 µM, first compound 0.00949 µM): 70.7%
- viability, T/C (second compound 0.01 µM, first compound 0.03 µM): 61.7%
- viability, T/C (second compound 0.01 µM, first compound 0.0949 µM): 62%
- viability, T/C (second compound 0.01 µM, first compound 0.3 µM): 56.6%
- viability, T/C (second compound 0.0316 µM, first compound 0.000949 µM): 49.9%
- viability, T/C (second compound 0.0316 µM, first compound 0.003 µM): 57.3%
- viability, T/C (second compound 0.0316 µM, first compound 0.00949 µM): 53.7%
- viability, T/C (second compound 0.0316 µM, first compound 0.03 µM): 53.7%
- viability, T/C (second compound 0.0316 µM, first compound 0.0949 µM): 56.4%
- viability, T/C (second compound 0.0316 µM, first compound 0.3 µM): 59.8%
- viability, T/C (second compound 0.1 µM, first compound 0.000949 µM): 53.5%
- viability, T/C (second compound 0.1 µM, first compound 0.003 µM): 53.9%
- viability, T/C (second compound 0.1 µM, first compound 0.00949 µM): 52.9%
- viability, T/C (second compound 0.1 µM, first compound 0.03 µM): 53.7%
- viability, T/C (second compound 0.1 µM, first compound 0.0949 µM): 57.9%
- viability, T/C (second compound 0.1 µM, first compound 0.3 µM): 55.4%
- viability, T/C (second compound 0.316 µM, first compound 0.000949 µM): 60%
- viability, T/C (second compound 0.316 µM, first compound 0.003 µM): 56.8%
- viability, T/C (second compound 0.316 µM, first compound 0.00949 µM): 63.1%
- viability, T/C (second compound 0.316 µM, first compound 0.03 µM): 64.9%
- viability, T/C (second compound 0.316 µM, first compound 0.0949 µM): 65.5%
- viability, T/C (second compound 0.316 µM, first compound 0.3 µM): 60.9%
- viability, T/C (second compound 1 µM, first compound 0.000949 µM): 58.1%
- viability, T/C (second compound 1 µM, first compound 0.003 µM): 60.2%
- viability, T/C (second compound 1 µM, first compound 0.00949 µM): 57.3%
- viability, T/C (second compound 1 µM, first compound 0.03 µM): 57.5%
- viability, T/C (second compound 1 µM, first compound 0.0949 µM): 51.2%
- viability, T/C (second compound 1 µM, first compound 0.3 µM): 55.1%

- IC50 (curve of compound): 16.3 nM and 19.1 nM
Structure (SMILES): Cn1ncnc1[C@H]1c2n[nH]c(=O)c3cc(F)cc(c23)N[C@@H]1c1ccc(F)cc1
- viability, T/C (compound 0.000316 µM): 96.7% and 95.8%
- viability, T/C (compound 0.001 µM): 87.8% and 95.3%
- viability, T/C (compound 0.00316 µM): 74.8% and 63%
- viability, T/C (compound 0.01 µM): 53.3% and 58.5%
- viability, T/C (compound 0.0316 µM): 43.7% and 50.4%
- viability, T/C (compound 0.1 µM): 43.8% and 39%

- IC50 (compound alone, run of 44348): > 1000 nM and 502 nM
Structure (SMILES): CCN1CCN(Cc2ccc(Nc3ncc(F)c(-c4cc(F)c5nc(C)n(C(C)C)c5c4)n3)nc2)CC1

Structure (SMILES): COc1c(OCCCN2CCOCC2)ccc2c3n(c(=NC(=O)c4cnc(N)nc4)nc12)CCN3 + CCN1CCN(Cc2ccc(Nc3ncc(F)c(-c4cc(F)c5nc(C)n(C(C)C)c5c4)n3)nc2)CC1
- IC50 [1]: 94.5 nM
- IC50 [2]: 90.8 nM
- IC50 [3]: 86.5 nM
- IC50 [4]: 78.3 nM
- IC50 [5]: 80.6 nM
- viability, T/C (second compound 0.01 µM, first compound 0.00316 µM): 89.5%
- viability, T/C (second compound 0.01 µM, first compound 0.01 µM): 99.3%
- viability, T/C (second compound 0.01 µM, first compound 0.0316 µM): 140%
- viability, T/C (second compound 0.01 µM, first compound 0.1 µM): 47%
- viability, T/C (second compound 0.01 µM, first compound 0.316 µM): 13.3%
- viability, T/C (second compound 0.01 µM, first compound 1 µM): 8.39%
- viability, T/C (second compound 0.0316 µM, first compound 0.00316 µM): 109%
- viability, T/C (second compound 0.0316 µM, first compound 0.01 µM): 121%
- viability, T/C (second compound 0.0316 µM, first compound 0.0316 µM): 142%
- viability, T/C (second compound 0.0316 µM, first compound 0.1 µM): 43.2%
- viability, T/C (second compound 0.0316 µM, first compound 0.316 µM): 11%
- viability, T/C (second compound 0.0316 µM, first compound 1 µM): 8.82%
- viability, T/C (second compound 0.1 µM, first compound 0.00316 µM): 156%
- viability, T/C (second compound 0.1 µM, first compound 0.01 µM): 161%
- viability, T/C [6]: 140%
- viability, T/C [7]: 37%
- viability, T/C [8]: 12.8%
- viability, T/C [9]: 9.54%
- viability, T/C (second compound 0.316 µM, first compound 0.00316 µM): 174%
- viability, T/C (second compound 0.316 µM, first compound 0.01 µM): 170%
- viability, T/C [10]: 111%
- viability, T/C [11]: 34.5%
- viability, T/C [12]: 14.8%
- viability, T/C [13]: 13.3%
- viability, T/C (second compound 1 µM, first compound 0.00316 µM): 173%
- viability, T/C (second compound 1 µM, first compound 0.01 µM): 171%
- viability, T/C [14]: 104%
- viability, T/C [15]: 40.4%
- viability, T/C [16]: 25%
- viability, T/C [17]: 28.6%

Structure (SMILES): CC1(C)CCC(CN2CCN(c3ccc(C(=O)NS(=O)(=O)c4ccc(NCC5CCOCC5)c([N+](=O)[O-])c4)c(Oc4cnc5[nH]ccc5c4)c3)CC2)=C(c2ccc(Cl)cc2)C1 + CC(C)NCC(C(=O)N1CCN(c2ncnc3c2C(C)CC3O)CC1)c1ccc(Cl)cc1
- IC50 [3]: 4270 nM
- IC50 [4]: < 31.6 nM
- IC50 [5]: < 31.6 nM
- IC50 [18]: < 31.6 nM
- IC50 [19]: < 31.6 nM
- viability, T/C [6]: 69.2%
- viability, T/C [7]: 63.2%
- viability, T/C [8]: 67.6%
- viability, T/C [9]: 63.2%
- viability, T/C [20]: 69%
- viability, T/C [21]: 3.74%
- viability, T/C [10]: 43%
- viability, T/C [11]: 46.8%
- viability, T/C [12]: 42.7%
- viability, T/C [13]: 45.3%
- viability, T/C [22]: 35.7%
- viability, T/C [23]: 3.22%
- viability, T/C [14]: 22%
- viability, T/C [15]: 20.5%
- viability, T/C [16]: 22.4%
- viability, T/C [17]: 19%
- viability, T/C [24]: 15.8%
- viability, T/C [25]: 3.59%
- viability, T/C [26]: 14.5%
- viability, T/C [27]: 15.3%
- viability, T/C [28]: 12.4%
- viability, T/C [29]: 13.4%
- viability, T/C [30]: 12.7%
- viability, T/C [31]: 3.12%
- viability, T/C [32]: 13.7%
- viability, T/C [33]: 12.7%
- viability, T/C [34]: 14.1%
- viability, T/C [35]: 11.5%
- viability, T/C [36]: 10.7%
- viability, T/C [37]: 0.81%

Structure (SMILES): Cc1nc(NC(=O)N2CCCC2C(N)=O)sc1-c1ccnc(C(C)(C)C(F)(F)F)c1 (stereo not drawn) + CC(C)NCC(C(=O)N1CCN(c2ncnc3c2C(C)CC3O)CC1)c1ccc(Cl)cc1
- IC50 [3]: 955 nM
- IC50 [4]: < 31.6 nM
- IC50 [5]: < 31.6 nM
- IC50 [18]: < 31.6 nM
- IC50 [19]: < 31.6 nM
- viability, T/C [6]: 60.7%
- viability, T/C [7]: 51.8%
- viability, T/C [8]: 47.8%
- viability, T/C [9]: 49.5%
- viability, T/C [20]: 41.8%
- viability, T/C [21]: 10.6%
- viability, T/C [10]: 43.7%
- viability, T/C [11]: 44.4%
- viability, T/C [12]: 39.2%
- viability, T/C [13]: 30.2%
- viability, T/C [22]: 24.6%
- viability, T/C [23]: 9.66%
- viability, T/C [14]: 26.5%
- viability, T/C [15]: 24.1%
- viability, T/C [16]: 17.8%
- viability, T/C [17]: 15.8%
- viability, T/C [24]: 12.5%
- viability, T/C [25]: 5.72%
- viability, T/C [26]: 14.2%
- viability, T/C [27]: 14.7%
- viability, T/C [28]: 11.8%
- viability, T/C [29]: 11.4%
- viability, T/C [30]: 8.54%
- viability, T/C [31]: 3.24%
- viability, T/C [32]: 13.4%
- viability, T/C [33]: 12.8%
- viability, T/C [34]: 10.5%
- viability, T/C [35]: 9.02%
- viability, T/C [36]: 7.87%
- viability, T/C [37]: 2.4%
